Like-named read-outs stand apart in the source and are kept apart here. Where a SMILES comes first, the peptide text is derived from it. Where no end group is shown, it is not given here. [ ]: non-standard residue; d: D form. Aib = CC(C)(N)C(=O)O
Experiments:
[1] = test system: Mouse monocyte/macrophage cell line, RAW 264.7; assay: Cholesterol efflux assay (3H-cholesterol, macrophage cell line); type: cell-based; settings: RAW 264.7, 4 hrs incubation, 0.1% human serum albumin; for 4 h Cholesterol Efflux Emax: ABCA1-mediated efflux; for EC50: read-out: 4 h Cholesterol Efflux EC50, ABCA1-mediated efflux (CPT-cAMP induced minus non-induced)
[2] = target: human GLP-1 receptor (Homo sapiens, UniProt P43220); assay: Functional GLP-1 receptor assay, in vitro potency (CRE luciferase; whole cells); type: cell-based
[3] = Pharmacokinetics in mini-pigs after i.v. administration; settings: female, Göttingen, minipig, iv, 5 nmol/kg; for half-life: T1/2 Mean Value
Excerpt: The aim of the study is to assess the pharmacokinetic properties of the compounds of the invention, in mini-pigs.
Göttingen mini-pigs female, 15-20 kg, purchased from Ellegaard Mini-pigs, Denmark, were housed in the Animal Unit, Novo Nordisk A/S and were kept and handled according to normal procedure in the Animal Unit. After minimum 2 weeks of acclimatization two permanent central venous catheters were implemented in vena cava caudalis in each animal. After surgery the animals were in their normal individual pens during the pharmacokinetic experiments.
Intravenous injections were given through the central short catheter, which was flushed with min 10 ml of sterile saline post administration. The test substance was dosed at 5 nmol/kg, N=3, in a volume of 0.05 ml/kg.
On day 1 the catheters are coupled to extension tubes, which will be removed at the end of day 1.
Samples were kept on wet ice until centrifugation (10 min, 4° C., 1942 g). Afterwards, plasma (min. 100 μl) was transferred immediately to Micronic tubes and kept at −20° C. until analysis. The plasma samples were analysed by an immunoaasay described below.
The plasma concentrations of the peptides with intact N-terminus were determined using a Luminescence Oxygen Chanelling Immuno-assay (LOCI). The donor beads were coated with streptavidin, while acceptor beads were conjugated with a monoclonal antibody recognizing a mid-/C-terminal epitope of the peptide. The other monoclonal antibody, specific for the N-terminus, was biotinylated. The three reactants were combined with the analyte and formed a two-sited immuno-complex. Illumination of the complex released singlet oxygen atoms from the donor beads, which were channeled into the acceptor beads and triggered chemi-luminescence which was measured in an Envision plate reader. The amount of light was proportional to the concentration of the compound.
Plasma concentration-time profiles was analysed by a non-compartmental pharmacokinetics analysis using Phoenix (Pharsight Inc., Mountain View, Calif., USA). Calculations were performed using individual concentration-time values from each animal.

[4] = GLP1R CRE luc 1% HSA EC50 Mean Value, BHK cells expressing human GLP-1 receptor, 1% HSA
[5] = BHK cells expressing human GLP-1 receptor, 0% HSA, read-out: GLP1R CRE luc 0% HSA EC50 Mean Value

human GLP-1 receptor, sequence (P43220 24-463): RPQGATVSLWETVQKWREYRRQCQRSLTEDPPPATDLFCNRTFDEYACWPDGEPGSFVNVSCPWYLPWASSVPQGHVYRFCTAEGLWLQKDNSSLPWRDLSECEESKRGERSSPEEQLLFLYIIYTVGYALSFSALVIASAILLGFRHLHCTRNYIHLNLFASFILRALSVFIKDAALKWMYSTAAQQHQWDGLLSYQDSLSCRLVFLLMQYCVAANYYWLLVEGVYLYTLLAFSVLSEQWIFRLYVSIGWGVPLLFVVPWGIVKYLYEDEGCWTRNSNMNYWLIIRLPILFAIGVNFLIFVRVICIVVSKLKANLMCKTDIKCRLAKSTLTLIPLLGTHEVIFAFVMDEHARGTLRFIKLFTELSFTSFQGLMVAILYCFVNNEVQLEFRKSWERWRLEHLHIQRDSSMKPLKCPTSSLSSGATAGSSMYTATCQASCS

CC[C@H](C)[C@H](NC(=O)[C@H](Cc1ccccc1)NC(=O)[C@H](CCC(=O)O)NC(=O)[C@H](CCCCN)NC(=O)[C@@H](NC(=O)[C@H](C)NC(=O)[C@H](CCC(=O)O)NC(=O)CNC(=O)[C@H](CCC(=O)O)NC(=O)[C@H](CC(C)C)NC(=O)[C@H](Cc1ccc(O)cc1)NC(=O)[C@H](CO)NC(=O)[C@H](CO)NC(=O)[C@@H](NC(=O)[C@H](CC(=O)O)NC(=O)[C@H](CO)NC(=O)[C@@H](NC(=O)[C@H](Cc1ccccc1)NC(=O)[C@@H](NC(=O)CNC(=O)[C@H](CCC(=O)O)NC(=O)C(C)(C)NC(=O)[C@@H](N)Cc1c[nH]cn1)[C@@H](C)O)[C@@H](C)O)C(C)C)C(C)C)C(=O)N[C@@H](C)C(=O)N[C@@H](Cc1c[nH]c2ccccc12)C(=O)N[C@@H](CC(C)C)C(=O)N[C@H](C(=O)N[C@@H](CCC(=O)O)C(=O)N[C@@H](CCCCN)C(=O)N[C@H](C(=O)N[C@@H](CCCCN)C(=O)N[C@@H](CCC(=O)O)C(=O)N[C@H](C(=O)N[C@@H](CC(C)C)C(N)=O)C(C)C)C(C)C)C(C)C [Compound 120, [Aib8,Glu23,Val25,Glu34,Lys35,Val36,Lys37]-GLP-1-(7-37)-peptidyl-Glu-Val-Leu amide] (H-H[Aib]EGTFTSDVSSYLEGEAVKEFIAWLVEKVKEVL-NH2; N-terminus assumed)
4 h Cholesterol Efflux Emax [1]: 142%
EC50 [1]: 380 nM
EC50 ([2]; GLP1R CRE luc 0% HSA EC50 Mean Value): 0.198 nM

CC[C@H](C)[C@H](NC(=O)[C@H](Cc1ccccc1)NC(=O)[C@H](CCC(=O)O)NC(=O)[C@H](CCCCN)NC(=O)[C@@H](NC(=O)[C@H](C)NC(=O)[C@H](CCC(=O)O)NC(=O)CNC(=O)[C@H](CCC(=O)O)NC(=O)[C@H](CC(C)C)NC(=O)[C@H](Cc1ccc(O)cc1)NC(=O)[C@H](CO)NC(=O)[C@H](CO)NC(=O)[C@@H](NC(=O)[C@H](CC(=O)O)NC(=O)[C@H](CO)NC(=O)[C@@H](NC(=O)[C@H](Cc1ccccc1)NC(=O)[C@@H](NC(=O)CNC(=O)[C@H](CCC(=O)O)NC(=O)C(C)(C)NC(=O)[C@@H](N)Cc1c[nH]cn1)[C@@H](C)O)[C@@H](C)O)C(C)C)C(C)C)C(=O)N[C@@H](C)C(=O)N[C@@H](Cc1c[nH]c2ccccc12)C(=O)N[C@@H](CC(C)C)C(=O)N[C@H](C(=O)N[C@@H](CCC(=O)O)C(=O)N[C@@H](CCCCN)C(=O)N[C@H](C(=O)N[C@@H](CCCCN)C(=O)N[C@@H](CCC(=O)O)C(=O)N[C@@H](Cc1ccccc1)C(=O)N[C@@H](Cc1ccccc1)C(N)=O)C(C)C)C(C)C [Compound 121, [Aib8,Glu23,Val25,Glu34,Lys35,Val36,Lys37]-GLP-1-(7-37)-peptidyl-Glu-Phe-Phe amide] (H-H[Aib]EGTFTSDVSSYLEGEAVKEFIAWLVEKVKEFF-NH2)
4 h Cholesterol Efflux Emax [1]: 109%
EC50 [2, 4]: 0.372 nM

CC[C@H](C)[C@H](NC(=O)[C@H](Cc1ccccc1)NC(=O)[C@H](CCC(=O)O)NC(=O)[C@H](CCCCN)NC(=O)[C@@H](NC(=O)[C@H](C)NC(=O)[C@H](CCC(=O)O)NC(=O)[C@H](CCC(=O)O)NC(=O)[C@H](CCC(=O)O)NC(=O)[C@H](CC(C)C)NC(=O)[C@H](Cc1ccc(O)cc1)NC(=O)[C@H](CO)NC(=O)[C@H](CO)NC(=O)[C@@H](NC(=O)[C@H](CC(=O)O)NC(=O)[C@H](CO)NC(=O)[C@@H](NC(=O)[C@H](Cc1ccccc1)NC(=O)[C@@H](NC(=O)CNC(=O)[C@H](CCC(=O)O)NC(=O)C(C)(C)NC(=O)[C@@H](N)Cc1c[nH]cn1)[C@@H](C)O)[C@@H](C)O)C(C)C)C(C)C)C(=O)N[C@@H](C)C(=O)N[C@@H](Cc1c[nH]c2ccccc12)C(=O)N[C@@H](CC(C)C)C(=O)N[C@H](C(=O)N[C@@H](CCC(=O)O)C(=O)N[C@@H](CCCCN)C(=O)N[C@H](C(=O)N[C@@H](CCCCN)C(=O)N[C@@H](CCC(=O)O)C(=O)N[C@@H](Cc1ccccc1)C(N)=O)C(C)C)C(C)C [Compound 134, [Aib8,Glu22,Glu23,Val25,Glu34,Lys35,Val36,Lys37]-GLP-1-(7-37)-peptidyl-Glu-Phe amide] (H-H[Aib]EGTFTSDVSSYLEEEAVKEFIAWLVEKVKEF-NH2)
4 h Cholesterol Efflux Emax [1]: 134%
EC50 [2, 5]: 0.029 nM
EC50 [2, 4]: 0.012 nM

CC[C@H](C)[C@H](NC(=O)[C@H](Cc1ccccc1)NC(=O)[C@H](CCC(=O)O)NC(=O)[C@H](CCCCN)NC(=O)[C@@H](NC(=O)[C@H](C)NC(=O)[C@H](CCC(=O)O)NC(=O)[C@H](CCC(=O)O)NC(=O)[C@H](CCC(=O)O)NC(=O)[C@H](CC(C)C)NC(=O)[C@H](Cc1ccc(O)cc1)NC(=O)[C@H](CO)NC(=O)[C@H](CO)NC(=O)[C@@H](NC(=O)[C@H](CC(=O)O)NC(=O)[C@H](CO)NC(=O)[C@@H](NC(=O)[C@H](Cc1ccccc1)NC(=O)[C@@H](NC(=O)CNC(=O)[C@H](CCC(=O)O)NC(=O)C(C)(C)NC(=O)[C@@H](N)Cc1c[nH]cn1)[C@@H](C)O)[C@@H](C)O)C(C)C)C(C)C)C(=O)N[C@@H](C)C(=O)N[C@@H](Cc1c[nH]c2ccccc12)C(=O)N[C@@H](CC(C)C)C(=O)N[C@H](C(=O)N[C@@H](CCC(=O)O)C(=O)N[C@@H](CCCCN)C(=O)N[C@H](C(=O)N[C@@H](CCCCN)C(=O)N[C@@H](CCC(=O)O)C(=O)N[C@@H](Cc1ccccc1)C(=O)N[C@@H](CC(C)C)C(N)=O)C(C)C)C(C)C [Compound 137, [Aib8,Glu22,Glu23,Val25,Glu34,Lys35,Val36,Lys37]-GLP-1-(7-37)-peptidyl-Glu-Phe-Leu amide] (H-H[Aib]EGTFTSDVSSYLEEEAVKEFIAWLVEKVKEFL-NH2)
4 h Cholesterol Efflux Emax [1]: 108%
EC50 [2, 5]: 0.116 nM
EC50 [2, 4]: 0.034 nM

H-HAEGTFTSDVSSYLEGEAVKEFIAWLVEKVKEFLEK-OH [Compound 123, [Glu23,Val25,Glu34,Lys35,Val36,Lys37]-GLP-1-(7-37)-peptidyl-Glu-Phe-Leu-Glu-Lys]
4 h Cholesterol Efflux Emax [1]: 111%
EC50 [2, 4]: 0.031 nM

H-HAEGTFTSDVSSYLEGEAVREFIAWLVERVREFLEK-OH [Compound 138]
4 h Cholesterol Efflux Emax [1]: 96%
EC50 [2, 5]: 0.041 nM
EC50 [2, 4]: 0.017 nM

H-HAEGTFTSDVSSYLEGEAVREFIAWLVHRVREFLEK-OH [Compound 139]
4 h Cholesterol Efflux Emax [1]: 104%
EC50 [2, 5]: 0.039 nM
EC50 [2, 4]: 0.014 nM

H-HAEGTFTSDVSSYLEGQAAKEFIAWLVEKVGEFLEK-OH [Compound 128]
4 h Cholesterol Efflux Emax [1]: 112%
EC50 [2, 5]: 0.041 nM
EC50 [2, 4]: 0.013 nM

H-HAEGTFTSDVSSYLEGQAAKEFIAWLVEKVKEFLDK-OH [Compound 129, [Glu34,Lys35,Val36,Lys37]-GLP-1-(7-37)-peptidyl-Glu-Phe-Leu-Asp-Lys]
4 h Cholesterol Efflux Emax [1]: 111%
EC50 [2, 5]: 0.045 nM
EC50 [2, 4]: 0.012 nM

H-HAEGTFTSDVSSYLEGQAAKEFIAWLVEKVKEFLEK-OH [Compound 124, [Glu34,Lys35,Val36,Lys37]-GLP-1-(7-37)-peptidyl-Glu-Phe-Leu-Glu-Lys]
4 h Cholesterol Efflux Emax [1]: 146%
EC50 [2, 5]: 0.03 nM
EC50 [2, 4]: 0.011 nM

H-HAEGTFTSDVSSYLEGQAAKEFIAWLVEKVKEFLER-OH [Compound 130, [Glu34,Lys35,Val36,Lys37]-GLP-1-(7-37)-peptidyl-Glu-Phe-Leu-Glu-Arg]
4 h Cholesterol Efflux Emax [1]: 125%
EC50 [2, 5]: 0.034 nM
EC50 [2, 4]: 0.011 nM

H-HGEGTFTSDVSSYLEEEAVKEFIAWLVEKVKEKL-NH2 [Compound 111, [Gly8,Glu22,Glu23,Val25,Glu34,Lys35,Val36,Lys37]-GLP-1-(7-37)-peptidyl-Glu-Lys-Leu amide]
4 h Cholesterol Efflux Emax [1]: 117%
EC50 [2, 4]: 0.076 nM

HAEGTFTSDLSKQMEEEAVREFIEWLKNKVLEFL-NH2 [Compound 69, [Ala2,Glu21,Lys29,Val30,Leu31,Glu32,Phe33,Leu34]-Exendin-4-(1-34)-peptide amide]
EC50 [1]: 410 nM
EC50 [2, 5]: 0.031 nM
EC50 [2, 4]: 0.02 nM

HAEGTFTSDVSSYLEGEAVKEFIAWLVEKVKEFL-NH2 [Compound 67, [Glu23,Val25,Glu34,Lys35,Val36,Lys37]-GLP-1-(7-37)-peptidyl-Glu-Phe-Leu amide]
C0 ([3]; plasma): 163 nM
Vd ([3]; plasma): 0.056 L/kg
clearance ([3]; plasma): 1.17 mL/h/kg
half-life ([3]; plasma, Göttingen mini-pigs, N=3): 33 h

HGEGTFTSDVSSYLEGEAVKEFIAWLVEKVKEFL-NH2 [Compound 76, [Gly8,Glu23,Val25,Glu34,Lys35,Val36,Lys37]-GLP-1-(7-37)-peptidyl-Glu-Phe-Leu amide]
C0 ([3]; in vivo): 136 nM
Vd ([3]; in vivo): 0.0636 L/kg
clearance ([3]; in vivo): 1.06 mL/h/kg
half-life ([3]; in vivo): 41.7 h

HGEGTFTSDVSSYLEGEAVKEFIAWLVEKVKEHL-NH2 [Compound 78, [Gly8,Glu23,Val25,Glu34,Lys35,Val36,Lys37]-GLP-1-(7-37)-peptidyl-Glu-His-Leu amide]
C0 ([3]; in vivo): 58.4 nM
Vd ([3]; in vivo): 0.134 L/kg
clearance ([3]; in vivo): 4.45 mL/h/kg
half-life ([3]; in vivo): 20.6 h
